Literature values in patent publication US7803786B2, “Pharmaceutical co-crystal compositions and related methods of use” (Transform Pharmaceuticals, Inc., priority 2004, dated 2010).

Assays:
[1] = Cambridge Structural Database (piracetam), Merck Index (gentisic acid)
[2] = co-crystal former; multiple values for multiple functionalities

known polymorphism of the free form [1] | pKa Values [2] | SMILES
dimorphic |  | O=C(O)c1cc(O)ccc1O [gentisic acid]
Three polymorphs |  | NC(=O)CN1CCCC1=O [piracetam]
 | 3.76 | O=C(O)C(O)C(O)C(O)C(O)CO (stereo not drawn) [Gluconic acid]
